Measured values: ChEMBL document CHEMBL1157469, “Characterization of the drug binding specificity of rat liver fatty acid binding protein” (J Med Chem, 2008)

Experiments:
[1] = molecular target: T1, Fatty acid-binding protein, liver (Rattus norvegicus, UniProt P02692); assay: Displacement of 1-anilinonaphthalene-8-sulphonic acid from rat recombinant L-FABP high binding affinity site expressed in Escherichia coli BL21 by competitive fluorescence displacement assay
T1 sequence (P02692 whole entry): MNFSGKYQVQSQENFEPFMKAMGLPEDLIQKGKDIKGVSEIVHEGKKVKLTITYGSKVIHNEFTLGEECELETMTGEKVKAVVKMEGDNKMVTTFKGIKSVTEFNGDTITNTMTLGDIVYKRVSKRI

[2] = molecular target: T1, Fatty acid-binding protein, liver; assay: Displacement of 1-anilinonaphthalene-8-sulphonic acid from rat recombinant L-FABP low binding affinity site expressed in Escherichia coli BL21 by competitive fluorescence displacement assay
[3] = molecular target: T2, Fatty acid-binding protein, intestinal (Homo sapiens, UniProt P12104); assay: Displacement of 1-anilinonaphthalene-8-sulphonic acid from I-FABP
T2 sequence (P12104 whole entry): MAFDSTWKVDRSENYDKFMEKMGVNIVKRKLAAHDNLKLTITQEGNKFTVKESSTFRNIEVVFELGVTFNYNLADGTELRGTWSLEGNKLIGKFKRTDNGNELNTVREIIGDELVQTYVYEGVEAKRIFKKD

Compound | Ki ([1]; read-out: Ki) | Ki ([2]; read-out: Ki) | Ki [3] | Ki [2] | Ki [1]
CC(C)(C)NCC(O)COc1cccc2c1CC(O)C(O)C2 (stereo not given) [NADOLOL] | 2310 µM |  |  |  | 
Cc1ccc(Cl)c(Nc2ccccc2C(=O)O)c1Cl [MECLOFENAMIC ACID] | 0.379 µM | 0.256 µM | 8.9 µM |  | 
CC(C)Cc1ccc(C(C)C(=O)O)cc1 (stereo not given) [IBUPROFEN] | 47.6 µM | 448 µM |  |  | 
C[C@@H]1C[C@H]2[C@@H]3CCC4=CC(=O)C=C[C@]4(C)[C@@]3(F)[C@@H](O)C[C@]2(C)[C@@]1(O)C(=O)CO [DEXAMETHASONE] | 22.1 µM | 41.3 µM |  |  | 
O=C1Nc2ccc(Cl)cc2C(c2ccccc2Cl)=NC1O (stereo not given) [LORAZEPAM] | 12.9 µM | 140 µM |  |  | 
CC(C)(Oc1ccc(C(=O)c2ccc(Cl)cc2)cc1)C(=O)O [FENOFIBRIC ACID] | 0.334 µM | 27.5 µM | 1 µM |  | 
CC(C)(Oc1ccc(CCNC(=O)c2ccc(Cl)cc2)cc1)C(=O)O [BEZAFIBRATE] |  | 44.4 µM | 33 µM |  | 
C[C@]12C=CC(=O)C=C1CC[C@@H]1[C@@H]2[C@@H](O)C[C@@]2(C)[C@H]1CC[C@]2(O)C(=O)CO [PREDNISOLONE] | 2.66 µM | 101 µM |  |  | 
CC(C(=O)O)c1ccc(N2Cc3ccccc3C2=O)cc1 (stereo not given) [INDOPROFEN] | 1.27 µM | 161 µM |  |  | 
CCOC(=O)C(C)(C)Oc1ccc(Cl)cc1 [CLOFIBRATE] | 6.92 µM |  |  |  | 
Cc1ccc(C)c(OCCCC(C)(C)C(=O)O)c1 [GEMFIBROZIL] | 1.86 µM | 179 µM |  |  | 
CC(=O)[C@H]1CC[C@H]2[C@@H]3CCC4=CC(=O)CC[C@]4(C)[C@H]3CC[C@]12C [PROGESTERONE] | 0.027 µM |  | 20 µM |  | 
CC(C)OC(=O)C(C)(C)Oc1ccc(C(=O)c2ccc(Cl)cc2)cc1 [FENOFIBRATE] | 0.024 µM | 0.405 µM |  |  | 
O=C(O)Cc1ccccc1Nc1c(Cl)cccc1Cl [DICLOFENAC] | 3.22 µM | 35.4 µM |  |  | 
O=C(c1ccccc1)c1ccc2n1CCC2C(=O)O (stereo not given) [KETOROLAC] | 11.6 µM | 119 µM |  |  | 
CC(=O)Oc1ccccc1C(=O)O [ASPIRIN] |  |  |  | 3780 µM | 348 µM
CC(C(=O)O)c1ccc(-c2ccccc2)c(F)c1 (stereo not given) [FLURBIPROFEN] | 1.18 µM | 222 µM | 26 µM |  | 
